Reference: ChEMBL document CHEMBL1201862, “PubChem BioAssay data set” (2004)
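Protocol summary: plate cells (96-well), add compound at 5 concentrations, incubate 48 h, interpolate endpoints linearly. Abbreviation: GI50, concentration required for 50% inhibition of growth.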 Activity calls are given as the source filed them. Rule as the data show it: active = GI50 up to about 1.1 µM and inactive = higher.

Tests used:
Assay in all cases: inhibition of tumour cell growth, NCI panel, 48 h
SK-MEL-5 = system: SK-MEL-5
NCI/ADR-RES = system: NCI/ADR-RES
SF-268 = system: SF-268
TK-10 = system: TK-10
PC-3 = system: PC-3
UACC-62 = system: UACC-62
OVCAR-4 = system: OVCAR-4
K562 = system: K562
SR = system: SR
RXF 393 = system: RXF 393
HT-29 = system: HT-29
SK-MEL-28 = system: SK-MEL-28
SNB-19 = system: SNB-19
DU-145 = system: DU-145
OVCAR-8 = system: OVCAR-8
SNB-75 = system: SNB-75
HCC 2998 = system: HCC 2998
NCI-H226 = system: NCI-H226

Measured: GI50

O=P(O)(O)CCP(=O)(O)O
inactive: SK-MEL-5 > 100 µM | NCI/ADR-RES > 100 µM | SF-268 > 100 µM | TK-10 > 100 µM | PC-3 > 100 µM | UACC-62 > 100 µM | OVCAR-4 > 100 µM | K562 > 100 µM | SR > 100 µM | RXF 393 > 100 µM | HT-29 > 100 µM | SK-MEL-28 > 100 µM | SNB-19 > 100 µM | DU-145 > 100 µM | OVCAR-8 > 100 µM

O=C1NC2c3c(I)sc(I)c3C(O)C2O1 (stereo not drawn)
inactive: NCI/ADR-RES > 100 µM | SF-268 > 100 µM | TK-10 > 100 µM | PC-3 > 100 µM | UACC-62 > 100 µM | OVCAR-4 > 100 µM | K562 > 100 µM | SR > 100 µM | SNB-75 > 100 µM | RXF 393 > 100 µM | HT-29 > 100 µM | SK-MEL-28 > 100 µM | HCC 2998 > 100 µM | NCI-H226 > 100 µM | SNB-19 > 100 µM | DU-145 > 100 µM | OVCAR-8 > 100 µM

COP(=O)(OC)/C(=C\c1cn(C(c2ccccc2)(c2ccccc2)c2ccccc2)cn1)NC(C)=O
inactive: NCI/ADR-RES > 100 µM | SF-268 > 100 µM | TK-10 > 100 µM | PC-3 > 100 µM | UACC-62 > 100 µM | OVCAR-4 > 100 µM | K562 51.8 µM | SR 81.8 µM | SNB-75 > 100 µM | RXF 393 30.6 µM | HT-29 68.5 µM | SK-MEL-28 > 100 µM | HCC 2998 > 100 µM | NCI-H226 > 100 µM | SNB-19 > 100 µM | DU-145 > 100 µM | OVCAR-8 > 100 µM

CCOC(=O)CCC(C(=O)OCC)n1nc2ccc(Nc3c(C)[n+]([O-])c4cc(F)c(OCC)cc4[n+]3[O-])cc2n1 (stereo not drawn)
inactive: SK-MEL-5 82.8 µM | NCI/ADR-RES 62.1 µM | SF-268 14 µM | TK-10 42.7 µM | PC-3 37.2 µM | UACC-62 36.3 µM | OVCAR-4 47.6 µM | K562 > 100 µM | SR > 100 µM | SNB-75 15.8 µM | RXF 393 11.6 µM | HT-29 > 100 µM | HCC 2998 35 µM | NCI-H226 36.7 µM | SNB-19 31.9 µM | DU-145 > 100 µM | OVCAR-8 30 µM

Cc1cc(C)n(CN(Cn2nc(C)cc2C)C2CCCCC2)n1
inactive: SK-MEL-5 31.2 µM | NCI/ADR-RES 19.8 µM | SF-268 33 µM | TK-10 44.4 µM | PC-3 22.9 µM | UACC-62 21.5 µM | OVCAR-4 24.2 µM | SR 30.1 µM | SNB-75 17.1 µM | RXF 393 22.4 µM | HT-29 21.1 µM | SK-MEL-28 20.7 µM | HCC 2998 14.6 µM | SNB-19 85.1 µM | DU-145 24.3 µM | OVCAR-8 25.7 µM

COC(=O)c1ccccc1C#CCCCOS(C)(=O)=O
inactive: SK-MEL-5 > 10 µM | NCI/ADR-RES > 10 µM | SF-268 > 10 µM | TK-10 > 10 µM | PC-3 > 10 µM | UACC-62 > 10 µM | OVCAR-4 > 10 µM | K562 > 10 µM | SR > 10 µM | RXF 393 > 10 µM | HT-29 > 10 µM | SK-MEL-28 > 10 µM | HCC 2998 > 10 µM | NCI-H226 > 10 µM | SNB-19 > 10 µM | DU-145 > 10 µM | OVCAR-8 > 10 µM

N=C(N)Nc1ccc(CC(N)NCC(=O)O)cc1 (stereo not drawn)
inactive: SK-MEL-5 > 25 µM | NCI/ADR-RES > 25 µM | SF-268 > 25 µM | TK-10 > 25 µM | PC-3 > 25 µM | UACC-62 > 25 µM | OVCAR-4 > 25 µM | K562 > 25 µM | SR 20 µM | SNB-75 > 25 µM | RXF 393 > 25 µM | HT-29 > 25 µM | SK-MEL-28 > 25 µM | HCC 2998 > 25 µM | NCI-H226 > 25 µM | DU-145 > 25 µM | OVCAR-8 > 25 µM

CC(NC(=O)C(C)C(=O)Nc1ccc(C(F)(F)F)cc1)C(N)=O (stereo not drawn)
inactive: SK-MEL-5 > 100 µM | NCI/ADR-RES > 100 µM | SF-268 > 100 µM | PC-3 > 100 µM | UACC-62 > 100 µM | K562 > 100 µM | SR > 10 µM | SNB-75 > 100 µM | RXF 393 > 100 µM | HT-29 > 100 µM | NCI-H226 > 100 µM | SNB-19 94 µM | DU-145 > 100 µM | OVCAR-8 > 100 µM

Br[C@@H]1[C@H]2c3nc4ccccc4nc3[C@@H]1C[C@H]2Br
inactive: SK-MEL-5 26.5 µM | NCI/ADR-RES 51.4 µM | SF-268 > 100 µM | TK-10 > 100 µM | PC-3 68.4 µM | UACC-62 > 100 µM | OVCAR-4 32.1 µM | K562 47.5 µM | SR 48.9 µM | RXF 393 37.7 µM | HT-29 58.6 µM | SK-MEL-28 > 100 µM | HCC 2998 > 100 µM | NCI-H226 31.3 µM | SNB-19 > 100 µM | DU-145 53 µM | OVCAR-8 > 100 µM

O=C1CC(=O)n2cnc3cccc(c32)N1
inactive: SK-MEL-5 > 100 µM | NCI/ADR-RES > 100 µM | SF-268 > 100 µM | PC-3 > 100 µM | UACC-62 > 100 µM | OVCAR-4 > 100 µM | K562 > 100 µM | SR > 100 µM | SNB-75 > 100 µM | RXF 393 > 100 µM | HT-29 > 100 µM | SK-MEL-28 > 100 µM | NCI-H226 > 100 µM | SNB-19 > 100 µM | DU-145 > 100 µM | OVCAR-8 > 100 µM

CNc1ncnc2c1ncn2C1C=CC(COS(N)(=O)=O)C1 (stereo not drawn)
inactive: SK-MEL-5 > 100 µM | NCI/ADR-RES > 100 µM | SF-268 > 100 µM | PC-3 > 100 µM | UACC-62 > 100 µM | OVCAR-4 > 100 µM | K562 > 100 µM | SR > 100 µM | SNB-75 > 100 µM | RXF 393 > 100 µM | HT-29 > 100 µM | SK-MEL-28 > 100 µM | HCC 2998 > 100 µM | SNB-19 > 100 µM | DU-145 > 100 µM | OVCAR-8 > 100 µM

CN(c1c(Cl)cccc1Cl)S(=O)(=O)c1ccccc1[N+](=O)[O-]
inactive: NCI/ADR-RES > 100 µM | SF-268 > 100 µM | TK-10 > 100 µM | PC-3 > 100 µM | UACC-62 > 100 µM | OVCAR-4 > 100 µM | SR > 100 µM | SNB-75 > 100 µM | RXF 393 > 100 µM | HT-29 > 100 µM | SK-MEL-28 > 100 µM | HCC 2998 > 100 µM | NCI-H226 > 100 µM | SNB-19 > 100 µM | DU-145 > 100 µM | OVCAR-8 > 100 µM

CCC(C)C(NC(=O)c1c2ccccc2nc2ccccc12)C(=O)O (stereo not drawn)
inactive: SK-MEL-5 60 µM | NCI/ADR-RES > 100 µM | SF-268 > 100 µM | TK-10 > 100 µM | PC-3 > 100 µM | UACC-62 > 100 µM | OVCAR-4 > 100 µM | K562 > 100 µM | SR > 100 µM | SNB-75 > 100 µM | HT-29 75.9 µM | SK-MEL-28 > 100 µM | HCC 2998 > 100 µM | NCI-H226 > 100 µM | SNB-19 > 100 µM | DU-145 > 100 µM | OVCAR-8 > 100 µM

Cc1c(Cc2ccccc2)c(Cc2ccccc2)c(C)[s+]1[O-]
inactive: SK-MEL-5 15.6 µM | NCI/ADR-RES 19.7 µM | SF-268 51.1 µM | TK-10 26.1 µM | PC-3 18.8 µM | UACC-62 14.5 µM | OVCAR-4 23.7 µM | K562 21.2 µM | SR 19.8 µM | SNB-75 20 µM | RXF 393 20.6 µM | HT-29 16.7 µM | SK-MEL-28 30.3 µM | HCC 2998 19.6 µM | SNB-19 47.1 µM | DU-145 38.3 µM | OVCAR-8 41.3 µM

Cc1cn(C2CC(N=[N+]=[N-])C(CO[Si](C)(C)C(C)(C)C)O2)c(=O)[nH]c1=O (stereo not drawn)
inactive: SK-MEL-5 18.5 µM | NCI/ADR-RES 16.6 µM | SF-268 19.5 µM | TK-10 16.3 µM | PC-3 15.7 µM | UACC-62 14.6 µM | OVCAR-4 14.2 µM | K562 20.8 µM | SR 23.3 µM | SNB-75 19.3 µM | RXF 393 15.5 µM | HT-29 16.8 µM | HCC 2998 12.6 µM | NCI-H226 14.9 µM | SNB-19 19.8 µM | DU-145 21.6 µM | OVCAR-8 19.4 µM

Cc1cc2ccccc2c[n+]1CC(=O)CC([O-])(C(F)(F)F)C(F)(F)F
inactive: SK-MEL-5 50.7 µM | NCI/ADR-RES > 100 µM | SF-268 > 100 µM | PC-3 > 100 µM | UACC-62 > 100 µM | OVCAR-4 > 100 µM | K562 72.8 µM | SR > 100 µM | SNB-75 > 100 µM | RXF 393 37.3 µM | HT-29 56.6 µM | SK-MEL-28 > 100 µM | HCC 2998 > 100 µM | NCI-H226 > 100 µM | SNB-19 > 100 µM | DU-145 > 100 µM | OVCAR-8 > 100 µM

Cc1ccc(S(N)(=O)=O)cc1 [P-TOLUENESULFONAMIDE]
inactive: SK-MEL-5 > 1000 µM | NCI/ADR-RES > 1000 µM | SF-268 > 1000 µM | TK-10 > 1000 µM | PC-3 > 1000 µM | UACC-62 > 1000 µM | K562 > 1000 µM | SR > 1000 µM | RXF 393 502 µM | HT-29 > 1000 µM | HCC 2998 > 1000 µM | NCI-H226 > 1000 µM | SNB-19 > 1000 µM | DU-145 > 1000 µM | OVCAR-8 > 1000 µM
